# Measurements from patent US20120003308A1, “Pharmaceutical Composition Comprising Aliskiren” (priority 2009, published 2012).
# Assay: Bioequivalence study of fixed combination versus free combination, single dose, crossover
# Set-up: species or system human
# Settings: in vivo
# Description: Pharmacokinetic measurements were performed on blood collected from each subject. […] The PK parameters were determined in plasma, using non-compartmental methods.
intra-subject coefficient of variation (CV) for AUC0-inf of aliskiren,intra-subject coefficient of variation (CV) for AUC0-tlast of aliskiren,intra-subject coefficient of variation (CV) for Cmax of aliskiren,intra-subject CV for AUC0-flast of valsartan,intra-subject CV for AUC0-inf of valsartan,intra-subject CV for Cmax of valsartan,SMILES
33.19%,33.98%,51.90%,–,–,–,"COCCCOc1cc(C[C@@H](C[C@H](N)[C@@H](O)C[C@H](C(=O)NCC(C)(C)C(N)=O)C(C)C)C(C)C)ccc1OC [Aliskiren, 2(S),4(S),5(S),7(S)—N-(3-amino-2,2-dimethyl-3-oxopropyl)-2,7-di(1-methylethyl)-4-hydroxy-5-amino-8-[4-methoxy-3-(3-methoxy-propoxy)phenyl]-octanamide]"
–,–,–,28.56%,28.33%,40.37%,CCCCC(=O)N(Cc1ccc(-c2ccccc2-c2nnn[nH]2)cc1)[C@H](C(=O)O)C(C)C [Valsartan]
